Assay results reported in patent publication US20110038940A1, “PULVERULENT COMPOSITION AND A PROCESS FOR PREPARING THE SAME” (INNOV'IA, priority 2008, published 2011).
Converted amounts (≈) assume the structure as drawn.

Legend:
[1] = Natural sedimentation in conical graduated tube, 15% dispersion in distilled water; sediment volume and dry solids; assay type: physicochemical; conditions: 15% (net w/total w) in distilled water at 20° C., 10 ml
Experimental: The water-dispersible pulverulent composition A is dispersed in distilled water at 20° C. at a concentration of 15% (net w/total w) in a conical graduated sedimentation tube (total volume of the solution is 10 ml). The quantity of the sediment (in ml) is measured along time (Table 3).
The encapsulation efficiency can also be assessed by measuring the hydration of the granules of the water-dispersible pulverulent composition of the invention. This has been evaluated by measuring the dry solid content of the sediment (% dry matter) (Table 3).

[2] = Sedimentation of dispersed composition in water measured by turbidity (back scattering laser, Turbiscan MA 1000); assay type: physicochemical; conditions: 10 g in 90 ml distilled water at 20° C., bottom of tube
Experimental: 10 g of the water-dispersible pulverulent composition A is dispersed in 90 ml of distilled water at 20° C. in a tube. The sedimentation rate is measured by turbidity using a back scattering laser device (Turbiscan MA 1000) along the tube. The back light is measured along the tube at different time so that evolution of the sedimentation can be followed along time. The sedimentation is measured at the bottom of the tube.

[3] = Sedimentation test (stability of the dispersion): sediment size and dry content after 24 hours; assay type: physicochemical; conditions: 1.5 g in 8.5 ml demineralised water, 2 min vortex; for Dry content of the sediment: sediment after 24 hours
Experimental: The stability is measured by the sedimentation test as follow: • 10 ml of solution is prepared using 8.5 ml of demineralised water and 1.5 g of the pulverulent composition A or B in special sedimentation tubes graduated from 0.1 ml up to 10 ml; • complete dispersion is assumed by a 2 min vortex mixing; • sedimentation is controlled at defined times to evaluate the amount of sediment; • quality of the dispersion is evaluated by measuring: • the dispersion of the solids all over the aqueous solution by measuring the height of the sediments of the hydrated particles. For the same amount of pulverulent composition, the higher the sediments, the more dispersed the particles in the aqueous solution • the dry content of the sediment after 24 hours.

[4] = water; cited from earlier work

Cc1cc2nc3c(=O)[nH]c(=O)nc-3n(C[C@H](O)[C@H](O)[C@H](O)CO)c2cc1C [Riboflavin]
Sediment volume after 1 Hour dispersion ([1]; 1 hour): 0.6 mL
Dry solids content of the sediment after 24 Hour sedimentation ([1]; 24 hours): 39.3%
% Back light after 2 min dispersion ([2]; 2 min): 2%
% Back light after 6 min dispersion ([2]; 6 min): 3.1%
Sediment after 24 H ([3]; 24 h): 1.5 mL
Dry content of the sediment ([3]; listed as Riboflavin (raw material)): 39.4%
Dry content of the sediment ([3]; listed as Riboflavin (raw material) (control)): 39.4%
Dry content of the sediment ([3]; listed as Riboflavine: Raw material (control)): 39.4%
solubility [4]: 70 µg/mL (≈ 186 µM)
